Test results as given in ChEMBL document CHEMBL1201862, “PubChem BioAssay data set” (2004).
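These data come from cells grown in 96-well plates and exposed to compound for 48 hours at five concentrations. At the GI50, growth is halved.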 Active and inactive are the calls of the source. Rule as the data show it: active = GI50 up to about 1.1 µM and inactive = higher.

Key:
Assay in all cases: DTP human tumour cell line panel, 48 h
[1] = system: OVCAR-4
[2] = system: HCT-116
[3] = system: MDA-MB-435
[4] = system: COLO 205
[5] = system: A549
[6] = system: RPMI-8226
[7] = system: BT-549
[8] = system: MDA-N
[9] = system: SF-295
[10] = system: HCC 2998
[11] = system: SNB-75
[12] = system: NCI-H522
[13] = system: SK-OV-3
[14] = system: KM12
[15] = system: SN12C
[16] = system: NCI-H460
[17] = system: SF-268
[18] = system: OVCAR-8
[19] = system: NCI/ADR-RES
[20] = system: SNB-19
[21] = system: UO-31
[22] = system: DU-145
[23] = system: MDA-MB-231
[24] = system: SW-620
[25] = system: Malme-3M
[26] = system: SK-MEL-2
[27] = system: Hs-578T
[28] = system: UACC-62
[29] = system: TK-10
[30] = system: ACHN
[31] = system: HCT-15
[32] = system: NCI-H23
[33] = system: HT-29
[34] = system: MCF7
[35] = system: IGROV-1
[36] = system: SF-539
[37] = system: K562
[38] = system: SK-MEL-5
[39] = system: U-251
[40] = system: CAKI-1
[41] = system: 786-0
[42] = system: A498
[43] = system: T47D
[44] = system: UACC-257
[45] = system: HOP-92
[46] = system: PC-3
[47] = system: LOX IMVI
[48] = system: NCI-H226
[49] = system: SK-MEL-28
[50] = system: M14
[51] = system: CCRF-CEM
[52] = system: SR
[53] = system: OVCAR-3
[54] = system: OVCAR-5
[55] = system: EKVX
[56] = system: HOP-62
[57] = system: HL-60
[58] = system: MOLT-4
[59] = system: RXF 393

COc1ccc2[nH]c3c(c2c1)CC(=O)N1CCCC(CC3O)C1 (stereo not drawn)
GI50 [1]: > 100 µM (inactive)
GI50 [2]: > 100 µM (inactive)
GI50 [3]: > 100 µM (inactive)
GI50 [4]: > 100 µM (inactive)
GI50 [5]: > 100 µM (inactive)
GI50 [6]: > 100 µM (inactive)
GI50 [7]: > 100 µM (inactive)
GI50 [8]: > 100 µM (inactive)
GI50 [9]: > 100 µM (inactive)
GI50 [10]: > 100 µM (inactive)
GI50 [11]: > 100 µM (inactive)
GI50 [12]: > 100 µM (inactive)
GI50 [13]: > 100 µM (inactive)
GI50 [14]: > 100 µM (inactive)
GI50 [15]: > 100 µM (inactive)
GI50 [16]: > 100 µM (inactive)
GI50 [17]: > 100 µM (inactive)
GI50 [18]: > 100 µM (inactive)
GI50 [19]: > 100 µM (inactive)
GI50 [20]: > 100 µM (inactive)
GI50 [21]: > 100 µM (inactive)
GI50 [22]: > 100 µM (inactive)
GI50 [23]: > 100 µM (inactive)
GI50 [24]: > 100 µM (inactive)
GI50 [25]: > 100 µM (inactive)
GI50 [26]: > 100 µM (inactive)
GI50 [27]: > 100 µM (inactive)
GI50 [28]: > 100 µM (inactive)
GI50 [29]: > 100 µM (inactive)
GI50 [30]: > 100 µM (inactive)
GI50 [31]: > 100 µM
GI50 [32]: > 100 µM (inactive)
GI50 [33]: > 100 µM (inactive)
GI50 [34]: > 100 µM (inactive)
GI50 [35]: > 100 µM (inactive)
GI50 [36]: > 100 µM (inactive)
GI50 [37]: > 100 µM (inactive)
GI50 [38]: > 100 µM (inactive)
GI50 [39]: > 100 µM (inactive)
GI50 [40]: > 100 µM (inactive)
GI50 [41]: > 100 µM (inactive)
GI50 [42]: > 100 µM (inactive)
GI50 [43]: > 100 µM (inactive)
GI50 [44]: > 100 µM (inactive)
GI50 [45]: > 100 µM (inactive)
GI50 [46]: > 100 µM (inactive)
GI50 [47]: > 100 µM (inactive)
GI50 [48]: > 100 µM (inactive)
GI50 [49]: > 100 µM (inactive)

COC(=O)Oc1nn(C(=O)OC)c(=O)c2ccccc12
GI50 [50]: > 100 µM (inactive)
GI50 [2]: > 100 µM (inactive)
GI50 [3]: > 100 µM (inactive)
GI50 [4]: 85.1 µM (inactive)
GI50 [5]: > 100 µM (inactive)
GI50 [51]: > 100 µM (inactive)
GI50 [6]: > 100 µM (inactive)
GI50 [7]: > 100 µM (inactive)
GI50 [8]: > 100 µM (inactive)
GI50 [9]: > 100 µM (inactive)
GI50 [10]: 59.8 µM (inactive)
GI50 [11]: 54.5 µM (inactive)
GI50 [12]: > 100 µM (inactive)
GI50 [13]: > 100 µM (inactive)
GI50 [14]: > 100 µM (inactive)
GI50 [15]: > 100 µM (inactive)
GI50 [52]: > 100 µM (inactive)
GI50 [17]: > 100 µM (inactive)
GI50 [18]: > 100 µM (inactive)
GI50 [19]: > 100 µM (inactive)
GI50 [20]: > 100 µM (inactive)
GI50 [21]: > 100 µM (inactive)
GI50 [22]: > 100 µM (inactive)
GI50 [23]: 95.3 µM (inactive)
GI50 [53]: > 100 µM (inactive)
GI50 [24]: > 100 µM (inactive)
GI50 [25]: 42.4 µM (inactive)
GI50 [26]: > 100 µM (inactive)
GI50 [27]: 65.8 µM (inactive)
GI50 [28]: > 100 µM (inactive)
GI50 [29]: > 100 µM (inactive)
GI50 [30]: > 100 µM (inactive)
GI50 [31]: > 100 µM
GI50 [32]: > 100 µM (inactive)
GI50 [54]: > 100 µM (inactive)
GI50 [34]: > 100 µM (inactive)
GI50 [35]: > 100 µM (inactive)
GI50 [36]: 61.8 µM (inactive)
GI50 [37]: > 100 µM (inactive)
GI50 [38]: > 100 µM (inactive)
GI50 [39]: > 100 µM (inactive)
GI50 [55]: > 100 µM (inactive)
GI50 [40]: > 100 µM (inactive)
GI50 [41]: > 100 µM (inactive)
GI50 [43]: 74.5 µM (inactive)
GI50 [44]: > 100 µM (inactive)
GI50 [46]: > 100 µM (inactive)
GI50 [56]: > 100 µM (inactive)
GI50 [57]: > 100 µM (inactive)
GI50 [47]: > 100 µM (inactive)
GI50 [48]: > 100 µM (inactive)
GI50 [49]: > 100 µM (inactive)
GI50 [58]: > 100 µM (inactive)

CN(CCc1ccc(N)cc1)[C@H]1CCCC[C@H]1N1CCCC1
GI50 [1]: > 100 µM (inactive)
GI50 [50]: > 100 µM (inactive)
GI50 [2]: > 100 µM (inactive)
GI50 [3]: > 100 µM (inactive)
GI50 [4]: > 100 µM (inactive)
GI50 [5]: > 100 µM (inactive)
GI50 [6]: 66.7 µM (inactive)
GI50 [7]: > 100 µM (inactive)
GI50 [8]: > 100 µM (inactive)
GI50 [9]: > 100 µM (inactive)
GI50 [10]: 51.9 µM (inactive)
GI50 [11]: > 100 µM (inactive)
GI50 [12]: > 100 µM (inactive)
GI50 [13]: > 100 µM (inactive)
GI50 [14]: > 100 µM (inactive)
GI50 [15]: > 100 µM (inactive)
GI50 [16]: > 100 µM (inactive)
GI50 [59]: > 100 µM (inactive)
GI50 [17]: > 100 µM (inactive)
GI50 [18]: > 100 µM (inactive)
GI50 [19]: > 100 µM (inactive)
GI50 [20]: > 100 µM (inactive)
GI50 [21]: > 100 µM (inactive)
GI50 [22]: > 100 µM (inactive)
GI50 [23]: > 100 µM (inactive)
GI50 [53]: > 100 µM (inactive)
GI50 [24]: > 100 µM (inactive)
GI50 [25]: > 100 µM (inactive)
GI50 [26]: > 100 µM (inactive)
GI50 [27]: > 100 µM (inactive)
GI50 [28]: > 100 µM (inactive)
GI50 [29]: > 100 µM (inactive)
GI50 [30]: > 100 µM (inactive)
GI50 [31]: > 100 µM
GI50 [32]: > 100 µM (inactive)
GI50 [33]: 78.2 µM (inactive)
GI50 [54]: > 100 µM (inactive)
GI50 [34]: > 100 µM (inactive)
GI50 [35]: > 100 µM (inactive)
GI50 [37]: 70.3 µM (inactive)
GI50 [38]: > 100 µM (inactive)
GI50 [39]: > 100 µM (inactive)
GI50 [55]: > 100 µM (inactive)
GI50 [40]: > 100 µM (inactive)
GI50 [41]: > 100 µM (inactive)
GI50 [42]: > 100 µM (inactive)
GI50 [43]: > 100 µM (inactive)
GI50 [44]: > 100 µM (inactive)
GI50 [45]: > 100 µM (inactive)
GI50 [46]: > 100 µM (inactive)
GI50 [56]: > 100 µM (inactive)
GI50 [57]: > 100 µM (inactive)
GI50 [47]: > 100 µM (inactive)
GI50 [48]: > 100 µM (inactive)
GI50 [49]: > 100 µM (inactive)
GI50 [58]: 98.4 µM (inactive)
